Each compound was assayed against DNA-PK (Homo sapiens (Human), UniProt P78527) (assay: In vitro enzymatic activity, ADP-Glo Kinase Assay). Settings: starting concentration 1 μM, 10 concentrations.
Format: biochemical
Method: Test substances: the compounds of the present disclosure, whose structural formulas and preparation methods are shown in the Examples.
1. Preparation of 1-Fold Kinase Buffer
1) The detection starting concentration of the compound was 1 μM, and it was prepared to a 100-fold concentration, namely 100 μM. 2 μl of […] was taken, 198 μl of 100% DMSO was added, and it was prepared into 100 μM compound solution. 100 μl of the compound of 100-fold concentration was added to a second well on a 96-well plate, and 60 μl of 100% DMSO was added to other wells. 30 μl of the compound was taken from the second well and added to a third well, it was diluted downwards sequentially by 3 times, and there was a total of 10 concentrations diluted.
2) 100 μl of 100% DMSO and positive control wortmannin with the highest concentration (400 nM) were transferred to two empty wells as a Max well and a Min well respectively.
3) 50 nl of the compound was transferred to a 384-well plate by Echo.
3. Preparation of 2× Kinase Solution
1) The 1-fold kinase buffer was used to prepare 2-fold DNA-PK kinase solution.
2) 2.5 μl of the 2-fold kinase solution was transferred to a reaction well of the 384-well plate.
3) It was shaken, mixed uniformly, and still placed at a room temperature.
4. Preparation of 2× Substrate Solution
1) The 1-fold kinase buffer was used to prepare 2-fold substrate solution.
2) 2.5 μl of the 2-fold substrate solution was transferred to the reaction well of the 384-well plate for a starting reaction.
3) It was shaken, and mixed uniformly.
5. Kinase Reaction and Termination
1) The 384-well plate was covered by a cover, and incubated at 28° C for 3 hours.
2) 5 μl of ADP-Glo reagent was transferred, and incubated at 28° C. for 2 hours.
6. Detection of Reaction Result
1) 10 μl of a kinase detection reagent was transferred into the reaction well of the 384-well plate for terminating the reaction.
2) It was still placed at the room temperature for 30 minutes.
Sample values were read on Envision.
8. Inhibition Rate Calculation
1) Data was copied from Envision.
2) It was converted into inhibition rate data.
Inhibition percentage=(max-conversion)/(max-min)*100. Wherein, max refers to the conversion rate of a DMSO control, min refers to the conversion rate of a control without enzyme activity, and conversion refers to the conversion rate of the test compound at each concentration.
3) The data was imported into MS Excel and XLFit excel add-in version 5.4.0.8 was used for curve fitting.

| Compound | IC50 [nM] |
| --- | --- |
| Cc1cc2ncnn2cc1Nc1ncc2c(n1)N1C(=NCC13CCC(O)CC3)N2C (single isomer, unassigned) [Compound 7-1, 5′-methyl-2′-((7-methyl-[1,2,4]-triazolo[1,5-a]pyridin-6-yl)amino)-5′,7″-dihydrospiro[cyclohexane-1,8′-imidazo[1,2-e]purine]-4-ol] | 0.62 |
| Cc1cc2ncnn2cc1Nc1ncc2c(n1)N1C(=NCC13CCC(O)CC3)N2C (single isomer, unassigned) [Compound 7-2, 5′-methyl-2′-((7-methyl-[1,2,4]-triazolo[1,5-a]pyridin-6-yl)amino)-5′,7″-dihydrospiro[cyclohexane-1,8′-imidazo[1,2-e]purine]-4-ol] | 0.72 |
| COC1CCC2(CC1)CN=C1N(C)c3cnc(Nc4cn5ncnc5cc4C)nc3N12 (single isomer, unassigned) [Compound 16-1, 4-methoxy-5′-methyl-N-(7-methyl-[1,2,4]triazolo[1,5-a]pyridin-6-yl)-5′,7′-dihydrospiro[cyclohexane-1,8′-imidazo[1,2-e]purin]-2′-amine] | 3 |
| COC1CCC2(CC1)CN=C1N(C)c3cnc(Nc4cn5ncnc5cc4C)nc3N12 (single isomer, unassigned) [Compound 16-2, 4-methoxy-5′-methyl-N-(7-methyl-[1,2,4]triazolo[1,5-a]pyridin-6-yl)-5′,7′-dihydrospiro[cyclohexane-1,8′-imidazo[1,2-e]purin]-2′-amine] | 2.2 |
| Cc1cc2ncnn2cc1Nc1ncc2c(n1)N1C(=NCC13CCOCC3)N2C [Compound 1, 5-methyl-N-(7-methyl-[1,2,4]triazolo[1,5-a]pyridin-6-yl)-2′,3′,5,5′,6′,7-hexanydrospiro[imidazo[1,2-e]purine-8,4′-pyran]-2-amine] | 0.82 |
| Cc1cc2ncnn2cc1Nc1ncc2nc3n(c2n1)C1(CCOCC1)CN3C [Compound 2, 6-methyl-N-(7-methyl-[1,2,4]triazolo[1,5-a]pyridin-6yl)-2′,3′,5′,6,6′,7-hexahydrospiro[imidazo[1,2-e]purine-8,4′-pyran]-2-amine] | 22 |
| Cc1cc2ncnn2cc1Nc1ncc2nc3n(c2n1)C1(CCOCC1)CN3 [Compound 3, N-(7-methyl[1,2,4]-triazolo[1,5-a]pyridin-6-yl)-2′,3′,5′,6,6′,7-hexahydrospiro[imidazo[1,2-e]purine-8,4′-pyran]-2-amine] | 10.6 |
| Cc1cc2ncnn2cc1Nc1ncc2c(n1)N1C(=NCC13CCCCC3)N2C [Compound 4, 5′-methyl-N-(7-methyl-[1,2,4]triazolo[1,5-a]pyridin-6-yl)-5′,7′-dihydrospiro[cyclonexane-1,8′-imidazo[1,2-e]purine]-2′-amine] | 0.8 |
| Cc1cc2ncnn2cc1Nc1ncc2c(n1)N1C(=NCC13CCC(F)(F)CC3)N2C [Compound 5, 4,4-difluoro-5″-methyl-N-(7-methyl-[1,2,4]-triazolo[1,5-a]pyridin-6-yl)-5′,7′-dihydrospiro[cyclohexane-1,8′-imidazo[1,2-e]purine]-2′-amine] | 1.63 |
| Cc1cc2ncnn2cc1Nc1ncc2c(n1)N1C(=NCC13CCC(=O)CC3)N2C [Compound 6, 5′-methyl-2-((7-methyl-[1,2,4]-triazolo[1,5-a]pyridin-6-yl)amino)-5′,7′-dihydrospiro[cyclonexane-1,8′-imidazo[1,2-e]purine]-4-one] | 4.8 |
| Cc1cc2ncnn2cc1Nc1ncc2c(n1)N1C(=NCC13CCSCC3)N2C [Compound 8, 5-methyl-N-(7-methyl-[1,2,4]triazolo[1,5-a]pyridin-6yl)-2′,3′,5,5′,6′,7-hexahydrospiro[imidazo[1,2-]purine-8,4′thiopyran]-2-amine] | 0.89 |
| Cc1cc2ncnn2cc1Nc1ncc2c(n1)N1C(=NCC13CCS(=O)(=O)CC3)N2C [Compound 9, 5-methyl-2-((7-methyl-[1,2,4]-triazolo[1,5-a]pyridin-6-yl)amino)-2′,3′,5,5′,6′,7-hexahydrospiro[imidazo[1,2-e]purine-8,4′-thiopyran]1′,1′-dioxide] | 21 |
| COC1(C)CCC2(CC1)CN=C1N(C)c3cnc(Nc4cn5ncnc5cc4C)nc3N12 (stereo not shown) [Compound 15-1, 4-methoxy-4,5′-dimethyl-N-(7-methyl-[1,2,4]triazolo[1,5-a]pyridin-6H)-5′7′-dihydrospiro[cyclohexane-1,8′-imidazo[1,2-e]purin]-2′-amine] | 1.37 |
| Cc1cc2ncnn2cc1Nc1ncc2c(n1)N1C(=NCC1(C)CCO)N2C (stereo not shown) [Compound 17, 2-(5,8-dimethyl-2-((7-methyl-[1,2,4]-triazolo[1,5-a]pyridin-6-yl)amino)-7,8-dihydro-5H-imidazo[1,2-e]purin-8-yl) ethan-1-ol] | 9.8 |
| Cc1cc2ncnn2cc1Nc1ncc2c(n1)N1C(=NCC13CCOC3)N2C (stereo not shown) [Compound 18, 5′-methyl-N-(7-methyl-[1,2,4]-triazolo[1,5-a]pyridin-6-yl)-4,5,5′,7′-tetrahydro-2-H-spiro[furan-3, 8′-imidazo[1,2-e]purin]-2′-amine] | 1.4 |
| Cc1cc2ncnn2cc1Nc1ncc2c(n1)N1C(=NCC13CCCOCC3)N2C (stereo not shown) [Compound 19, 5methyl-N-(7-methyl-[1,2,4]triazolo[1,5-a]pyridin-6-yl)-5,7-dihydrospiro[imidazo[1,2-e]purine-8,4′-oxepan]-2-amine] | 1.6 |
| Cc1cc2ncnn2cc1Nc1ncc2c(n1)N1C(=NC[C@@]13CCCOCC3)N2C [Compound 19-1] | 1.1 |
| Cc1cc2ncnn2cc1Nc1ncc2c(n1)N1C(=NC[C@]13CCCOCC3)N2C [Compound 19-2] | 1.7 |
| Cc1cc2ncnn2cc1Nc1ncc2c(n1)N1C(=NCC13CC[S+]([O-])CC3)N2C (stereo not shown) [Compound 20, 5-methyl-2-((7-methyl-[1,5-a]pyridin-6-yl)amino)-2′,3′,5,5′,6′,7-hexanydrospiro[imidazo[1,2-e]purine-8,4′-thiopyran]-1′-oxide] | 18.7 |
